Results reported in US20210205264A1, “USE OF DELTA-TOCOTRIENOL FOR TREATING CANCER” (H. LEE MOFFITT CANCER CENTER & RESEARCH INSTITUTE INC., priority 2018, published 2021).

System: CCSCs
Assay: Annexin V FITC/PI flow cytometry apoptosis assay in CCSCs
Assay type: cell-based, human
Details: 24 hours; d-T3 50 μM, aspirin 5 mM
Description: FIGS. 10A, 10B, 10C, and 10D show induction of apoptosis measured by flow cytometry (FIG. 10A) and confocal microscopy (FIG. 10B) in CCSCs after treatment with vehicle, aspirin, d-T3, and aspirin+d-T3. Effect of BID inhibitor on apoptosis in CCSCs after treatment with aspirin or d-T3 (FIG. 10C). Induction oft-BID in CCSCs after treatment with vehicle, aspirin, d-T3, and aspirin+d-T3 (FIG. 10D).
d-T3 can induce selective killing of CCSCs through the BH3 interacting-domain death agonist (BID). […] It should be noted that these in vitro results are consistent with the in vivo observation of the selective induction of apoptosis in APC mutant colon crypt cells in the ApcMin/+ mice but not in the normal intestinal cells of the AOM rat CRC model or NOD/SCID mice. […] Although the proapoptotic activity of d-T3 is a consistent observation of d-T3 anticancer activity in all of the published reports, the mechanism by which d-T3 induces apoptosis is poorly understood. Apoptotic death is regulated by the death receptor (extrinsic) and mitochondrial (intrinsic) pathways. These 2 pathways crosstalk under certain conditions through caspase-8-mediated cleavage of BID, a BH3-only Bcl-2 family member. The activated and truncated BID (tBID) then engages the intrinsic pathway for efficient apoptosis induction. To obtain preliminary information regarding the mechanisms by which d-T3 induces apoptosis in CCSCs, the activation of BID was measured after 24-hour treatment with vehicle, aspirin (5 mM), d-T3 (50 μM), and aspirin combined with d-T3 in CCSCs by Western blotting.

CC(C)=CCC/C(C)=C/CC/C(C)=C/CC[C@]1(C)CCc2cc(O)cc(C)c2O1 [d-T3, δ-tocotrienol]
induction of apoptosis: much more effective than aspirin
